In data set [1] the test system is NCKX5. As to the kind of experiment: Western blot of NCKX5 protein 5 days after siRNA mediated knockdown. It is filed as cell-based, human. The conditions noted are these: 5 days after siRNA knockdown, rabbit anti-NCKX5 pAb (anti C-terminus peptide). The protocol: Using western blot we have investigated NCKX5 protein expression 5 days after siRNA mediated knockdown (all 5 siRNA duplexes and controls were tested). Western blot was also used to evaluate the expression and processing (maturation) of tyrosinase (tyr) in the same samples. SDS-PAGE (10% PA for NCKX5, 4-12% for tyr, 5 μg protein/lane). A) Western blot for NCKX5: Detection via rabbit anti-NCKX5 pAb (anti C-terminus peptide). B) Western blot for tyr, via goat pAb (Santa Cruz). 1=No treatment, 2=scrambled siRNA control, 3-7=siRNA's 185, 260, 301, 492, 1110. […] These bands are absent in the samples where SLC24A5-specific duplexes were used (lanes 3-7). It is possible that the doublet represents the presence of alternate SLC24A5 splice variants.
(§1) • Cultured Cells (trypsinised off of 6-well culture plates) were lysed on ice for 20 minutes in 1.5 ml eppendorfs using 100 μl per sample of 1% triton X-100 in dPBS containing protease inhibitor cocktail (Sigma-Aldrich, Poole, UK). Cell extracts were centrifuged (10 minutes at 13000 g) to separate melanin and cell debris from the solubilised protein. The protein concentration of each supernatant fraction was determined by BCA assay as described in A).
• 20 μg protein (as determined by BCA assay) was reconstituted into 20 μl of 1×LDS loading buffer (Invitrogen Ltd, Paisley, UK) containing 1× reducing agent (Invitrogen Ltd, Paisley, UK), heated to 40° C. for 30 minutes and loaded onto 10% Novex bis-tris acrylamide gels with 1×MOPS running buffer (Invitrogen Ltd, Paisley, UK). Kaleidoscope molecular weight markers (Bio-Rad Laboratories Ltd, Hemel Hempstead, UK) were run alongside samples for size determinations. Protein was transferred onto PVDF membrane by electrophoresis transfer, using a Bio-Rad mini-cell II trans-blotter and 1× Tris-Glycine transfer buffer (Invitrogen Ltd, Paisley, UK)+15% v/v methanol (100V for 1 hour).
• Membranes containing transferred protein were “blocked” using 2% w/v skimmed milk protein (SMP) in PBS+0.05% tween20 (PBST) for 1 hour with gentle agitation. Peptide affinity purified rabbit polyclonal antibody (raised using a peptide equivalent to the C-terminus of NCKX5-GNNKIRGCGG) was diluted to 0.5 μg/ml using 2% SMP in PBST. The diluted antibody was incubated with the membrane for 2 hours at room temperature. The membrane was then rinsed with PBST (4×5 minutes washes). Peroxidase conjugated anti-rabbit IgG (Jackson ImmunoResearch Laboratories Inc. PA, USA) was diluted 1/4000 using 2% SMP in PBST and was incubated with the membranes for 1 hour. Finally, membranes were washed using 6×5 minute rinses with PBST. SuperSignal Western pico (Perbio Science UK Ltd, Northumberland, UK) chemiluminescence detection reagents was used to probe the membranes for secondary antibody binding as per the manufacturers instructions. Visualisation of results was via a Chemidoc XRS imaging system (Bio-Rad Laboratories Ltd, Hemel Hempstead, UK).
(In western blotting, separated proteins are transferred to a membrane and probed.)

The subject of data set [2] is B16 cells. As to the kind of experiment: Cell viability of B16 cells after siRNA treatment (Wst1 assay). Format: cell-based, mouse. The conditions noted are these: end of each experiment. Here is the method: (§2) Media was removed and melanin quantified by OD450. Cell viability measured using Wst1 proliferation reagent (Roche) before lysis using 1% triton ×100. Protein content of each well was determined by BCA assay.
Cell viability and protein content determination post-treatment could help to identify the manner in which SLC24A5 modulates pigment production in B16 melanocytes. […] This conclusion is supported by data obtained for protein content.
• The phenol free DMEM culture media was removed from each well for quantification of secreted melanin. Each well of the culture plate was then rinsed once with Dulbeccos phosphate buffered saline (dPBS) (Sigma-Aldrich, Poole, UK) and replaced with 0.5 ml Wst1 reagent (diluted 1/10 in media) (Roche Diagnostics Ltd, West Sussex, UK). The culture plate was incubated at 37° C., 5% CO2 for 30 minutes. The Wst1 reagent was removed from each well for determination of cell viability and each well was again rinsed with dPBS. 200 μl of 1% w/v Triton X-100 (Sigma-Aldrich, Poole, UK) in dPBS was added to each well of the culture plate. The plate was incubated for 20 minutes at 4° C. on an orbital shaker. Supernatant from each well was removed and centrifuged at 13000 g for 5 minutes to remove cell debris. Soluble fractions were kept for protein quantification.
• The OD^450 of 100 μl fractions (measured in duplicate) of post-incubation Wst1 reagent was measured. […]

The subject of data set [3] is B16 cells. The data set can be described thus: Melanin synthesis in B16 cells after SLC24A5 siRNA knockdown (OD450 of media). The conditions noted are these: transfected 8 hours, cultured a further 3 days. It is filed as cell-based, mouse. Here is the method:
Cells were transfected (lipofectamine 2000) with siRNA duplexes or controls for 8 hours. Cells were cultured for a further 3 days prior to analyses.
as §2
Experiment (each in quadruplicate) reproduced x3 consecutively.
24 h prior to transfection, B16 cells were plated at 25,000 cells/well in a 48-well plate. Cells in quadruplicate wells were transfected with 2 μg/ml Lipofectamine 2000 and 50 nM Stealth™ RNAi duplexes targeting SLC24A5 or scrambled controls (from Invitrogen). […]
Cells were incubated with transfection reagents for 6-8 h, reagents were then removed and replaced with phenol red-free DMEM supplemented with 10% FCS and 4 mM L-glutamine for 72 h. At 72 h, cells were taken for viability and total protein determination and supernatants analysed for melanin production.
• The phenol free DMEM culture media was removed from each well for quantification of secreted melanin. […] Soluble fractions were kept for protein quantification.
• 1 mg synthetic melanin (Sigma-Aldrich, Poole, UK) was dissolved in 50 μl of 100% DMSO. […] This standard was serially diluted (5-fold) in media+FCS to give a standard curve for quantification of melanin in sample preparations (range from 1000 to 8 μg/ml). […]

In data set [4] the test system is lightly pigmented human melanocytes. As to the kind of experiment: Quantitative assessment of melanogenesis (melanin content) after siRNA knockdown in human melanocytes. Format: cell-based. As to conditions: replicated x3. Here is the method: A decrease in post-treatment melanin content is noted for duplex (492) in lightly pigmented human melanocytes (replicated ×3).
as §1
• To each pellet of melanin+cell debris obtained in section 2), 0.5 ml of diethyl ether:ethanol (1:1 ratio) was added. Eppendorfs were vortexed vigorously for 30 seconds and centrifuged at 13000 g for 5 minutes. The ether layer was carefully removed to waste and a further 0.5 ml was added. The tubes were agitated and centrifuged as before. The liquid phase was again removed and the melanin pellets were allowed to air dry at room temperature for 10 minutes. […] OD^45 0 of each sample was determined and the melanin content of each fraction was calculated from a synthetic melanin standard curve, prepared as described above. In treatment comparisons, results were expressed as μg melanin per μg protein. […]

“Also recorded” adds a separate entry of the source.

Take “duplex 260: Stealth siRNA duplex against human SLC24A5, exon 2; 5′ GAGCGCAGAGATGGAGGCATCATAA 3′ (antisense TTATGATGCCTCCATCTCTGCGCTC; Stealth chemically modified siRNA duplex, pattern not given here)”: the “NCKX5 bands of approx. 42 and 44 KDa on western blot” value (“NCKX5 bands of approx. 42 and 44 KDa” below) in data set [1] is “absent”.
Same read-out and setting: under “duplex 185: Stealth siRNA duplex against human SLC24A5, exon 1 & 2 boundary; 5′ AGGGCCACAGGAAATAGCACCCAAT 3′ (antisense ATTGGGTGCTATTTCCTGTGGCCCT; Stealth chemically modified siRNA duplex, pattern not given here)” stands “absent”.
On to “duplex 567: Stealth RNAi duplex targeting murine SLC24A5; sense 5′-CCUCUUCCGAGACUGUGCAGUGUAU-3′ (antisense GGAGAAGGCUCUGACACGUCACAUA; Stealth chemically modified RNAi duplex, pattern not given here; one strand is listed 3' to 5')”, for which, in data set [2], the “cell viability / toxicity” value was “significant toxicity”. In addition, the “melanin synthesis / pigment production” value in data set [3] was “visibly decreased”.
Take “duplex 301: Stealth siRNA duplex against human SLC24A5, exon 2; 5′ CGTTTACATGTTCATGGCCATATCT 3′ (antisense AGATATGGCCATGAACATGTAAACG; Stealth chemically modified siRNA duplex, pattern not given here)”: the “NCKX5 bands of approx. 42 and 44 KDa” value in data set [1] is “absent”.
Take “duplex 762: Stealth RNAi duplex targeting murine SLC24A5; sense 5′-CAGAGCUAUGGAGGAGAGAAUUGAA-3′ (antisense GUCUCGAUACCUCCUCUCUUAACUU; Stealth chemically modified RNAi duplex, pattern not given here; one strand is listed 3' to 5')”: in data set [2], the “cell viability / toxicity” value was “without affecting viability”. Further, the “melanin synthesis / pigment production” value in data set [3] (listed as 762) was “visibly decreased; also recorded: reduce pigment production”.
For “duplex 1110: Stealth siRNA duplex against human SLC24A5, exon 7; 5′ CCGCATTTACATATATCCTGGTTTG 3′ (antisense CAAACCAGGATATATGTAAATGCGG; Stealth chemically modified siRNA duplex, pattern not given here)”, in data set [1], the “NCKX5 bands of approx. 42 and 44 KDa” value is recorded as “absent”.
As to “duplex 492: Stealth siRNA duplex against human SLC24A5, exon 3 & 4 boundary; 5′ GCACCATCCTTGGATCTGCAATTTA 3′ (antisense TAAATTGCAGATCCAAGGATGGTGC; Stealth chemically modified siRNA duplex, pattern not given here)”, the “NCKX5 bands of approx. 42 and 44 KDa” value in data set [1] is on record as “absent”. Also, the post-treatment melanin content result in data set [4] is listed as “decrease”.

The values are drawn from US20090181115A1, “Method of Screening for Compounds That Alter Skin and/or Hair Pigmentation” (priority 2006, published 2009).
